Measured values published in US20240392305A1, “GENETICALLY MODIFIED BACTERIA AND USES THEREOF FOR THE INDUCIBLE EXPRESSION OF A NUCLEIC SEQUENCE OF INTEREST” (Institut National de Recherche Pour l'Agriculture, …, priority 2021, published 2024).

Experiments:
[1] = tested on: SHP/Rgg1358 system; test: Maximum luciferase activity of strain TIL1566 with different synthetic SHPs; assay type: cell-based, S. thermophilus; settings: strain TIL1566 in CDM, 37° C., synthetic peptide 1 μM; mean of three independent experiments
Experimental: For the assessment of the maximum luciferase activity reached with the addition of different SHPs in the culture media of strain TIL1566 (blp::rgg1358-Pster1357-luxAB-aphA3 ΔpptAB::erm), cells were grown overday at 37° C. in CDM. These cultures were diluted to a final OD600 of 0.05 in 1 ml of CDM. Synthetic SHP peptides were added in the culture medium at a final concentration of 1 μM. 250 μl of these diluted cultures were transferred to the wells of a covered sterile white microplate with a transparent bottom. The cultures' OD600 and luminescence values were monitored at 37° C. every 10 minutes in an Infinite M200 spectroluminometer, as previously described (Fontaine et al., J. Bacteriol. 192:1444-1454, 2010). The maximum of luminescence was recovered from each kinetic. The maximum activity was reported in Relative Luminescent Units divided by the OD600 (RLU/OD600) and measured as the mean of three independent experiments.
In order to assess their efficiency, we used their synthetic mature form to record the maximum luciferase activity of strain TIL1566 (blp::rgg1358-Pster1357-luxAB ΔpptAB::erm) in CDM and compared it to the one obtained with SHP1358. We chose the mature SHPs of strain CNRZ1066 similar to the mature SHP1358 (EGIIVIVVG, SEQ ID NO: 24): the SHP associated to Rgg STR_RS07375 (EGIIVILVG, SEQ ID NO: 25), the SHP associated to Rgg STR_RS09145 (EGIIVIGVG, SEQ ID NO: 26) and the SHP associated to Rgg STR_RS04530 (ESIIVIAVG, SEQ ID NO: 27). The most efficient peptide was ESIIVIAVG (SEQ ID NO: 27) with a maximum relative luciferase activity that reached 95% of the one obtained with SHP1358. The two other peptides were less efficient with percentage of 86% with EGIIVILVG (SEQ ID NO: 25) and only 27% with EGIIVIGVG (SEQ ID NO: 26).

[2] = tested on: elafin; test: Western blot detection of secreted elafin in culture supernatants; assay type: cell-based, human
Excerpt: FIG. 3. Production of elafin detected by Western blot in the supernatant of different S. thermophilus strains. (A) At OD600 0.2 and 0.5 for strain TIL1536 (ΔhtrA::aphA3 ΔsepM::spec), TIL1551 (blp::shp-rgg1358-Pster1357-elafin-P32 cm ΔhtrA::aphA3 ΔywdF::spec) and TIL1552 (blp::rgg1358-Pster1357-elafin-P32 cm ΔhtrA::aphA3 ΔywdF::spec). (B) At OD600 1 and 2 for strain TIL1536, TIL1551 and TIL1552. (C) At OD600 0.2, 0.5 and 1 for strain TIL1567 (blp::rgg1358-Pster1357-luxAB-aphA3 ΔhtrA::aphA3 ΔywdF::spec ΔpptAB::erm). Purified elafin was used as a positive control and strain TIL1536 as negative control (elafin non-producing strain). Induction of the production of elafin with the addition of synthetic SHP in the culture medium is mentioned with: +SHP.
For the preparation of the samples, derivatives of strain CNRZ1066 were grown in CDM at 42° C. When necessary, induction was performed with the addition of SHP peptide (EGIIVIVVG, SEQ ID NO: 24) at a final concentration of 1 μM for strain TIL1552 and 0.5 µM for strain TIL1567 in the growth medium at OD600 of 0.2. When the cultures reached the desired OD600, 10 ml were centrifuged at 3200 g for 10 min at room temperature. […]
For the Western blot experiments, 10 μl of the samples were diluted in Laemmli Buffer (4×) and heated to 95° C. for 5 minutes. […] Detection was finally recorded using a Chemidoc (Biorad).

ESIIVIAVG (listed as Streptococcus thermophilus)
maximum relative luciferase activity, percentage of the one obtained with SHP1358 [1]: 95%

EGIIVIGVG (listed as Streptococcus thermophilus)
maximum relative luciferase activity, percentage of the one obtained with SHP1358 [1]: 27%

EGIIVIVVG (listed as Streptococcus thermophilus) [SHP1358, mature small hydrophobic peptide of S. thermophilus LMD-9, inducer of Rgg1358]
elafin level in induced culture versus uninduced culture ([2]; strain 1552, SHP 1 μM added at OD600 0.2, sampled at OD600 0.5): much greater | production of elafin in the extracellular medium on addition of SHP ([2]; strain TIL1567 (ΔpptAB), SHP 0.5 μM added at OD600 0.2, detected at OD600 0.5 and 1): restored

EGIIVILVG (listed as Streptococcus thermophilus)
maximum relative luciferase activity, percentage of the one obtained with SHP1358 [1]: 86%
